Assays:
[1] = system: human BBB-on-a-chip (hBMEC, HBVP, NHA); test: in vitro
Experimental: (§1) The design and construction of the BBB-on-a-chip were as reported previously. The chip (Emulate, #OCK-12) was composed of two parallel microchannels (top; 1 × 1 mm, bottom; 1 × 0.2 mm) separated by a porous polydimethysiloxane (PDMS) membrane (diameter, 7 μm; spacing, 40 μm; thickness, 50 μm, resulting in 2% porosity over a surface area of 0.171 cm^2 separating the two channels). The membrane was activated according to the manufacturer’s instructions and coated with the mixture of laminin (1 mg/mL), collagen IV (1 mg/mL), and fibronectin (1 mg/mL) in DPBS (Figure 1). Coated chips were incubated at 4 °C overnight, then at 37 °C for 1 h before seeding the cells. hBMEC cells (9 × 10^5 cells/mL) were 20 µL seeded into the bottom channel of the chip. The chip was immediately inverted and incubated at 37 °C for 4 h. After 4 h, hBMECs were prepared as previously described and re-injected into the bottom channel to mimic the vascular structure, as shown in right panel of Figure 2A.
(§2) Ten drugs (Table 1) were selected for BBB permeability analysis (CAF, CBZ, DES, LPM, CET, VIN, LP, NZD, DPZ, and SIM). […] We performed transport experiments for the basolateral-to-apical side and the apical-to-basolateral side.
(§3) Fifteen microliters of blood-and-brain medium was mixed with 135 μL internal standard (IS) solution (5 ng/mL disopyramide in acetonitrile). The mixture was vortexed briefly and centrifuged at 15,000 rpm for 5 min at 4 °C. […] Mobile phase A was 0.1% formic acid in water and mobile phase B was 0.1% formic acid in acetonitrile. Chromatographic separation was performed on a Luna C18 column (100 × 2 mm (i.d.) 3 μm, Phenomenex) with a Security Guard C18 guard column (4 mm × 20 mm (i.d.), Phenomenex) by gradient elution at a flow rate of 0.3 mL/min (Table 2). The mass spectrometer was operated in positive ion mode for all compounds, and the carryover was checked by the injection of a blank in between samples.
(§4) (1) Ctn,channel=Atn−1, channel+C(tn−tn−1),channel·tn−tn−1·channel flow rate/tn·channel flow rate, where Achannel is the drug amount of the channel; tn is time point; C(tn−tn−1),channel is the concentration of drug pooled from tn to tn−1; channel flow rate, fluid flow rate in channel;
(§5) (2) Cchannel=Css, channel · t/CT50, channel+t, where CT50, channel is the time at a half steady state concentration of channel; t, time.
(§6) Kp , the partition coefficient, in the BBB-on-a-chip was calculated by dividing the calculated Css, brain by the Css, blood value of the drug passing through the bottom channel, as shown in Equation (3). (3) Kp=Css, brain/Css, blood
(§7) J represents the rate at which the amount of compound moves from the bottom channel to the top channel, which was calculated by determining the slope of the time-versus-amount curve at 0 h to the point at which a steady state (90% of Tss ) was reached. Papp can be calculated by dividing J by the surface area of the membrane (SA) separating the two channels and the initial concentration in the bottom channel. (4) Papp=J/MW/SA·C0,blood ,J=dAbrain/dt, where MW is molecular weight of each drug.

[2] = in vitro; conditions: human
Experimental: as §1, §2, §3, §4, §5, §6, §7

[3] = system: human BBB-on-a-chip (hBMEC, HBVP, NHA); test: BBB-on-a-chip permeability, basolateral to apical (brain to blood channel), LC-MS/MS; format: in vitro ADME; conditions: 1 μM in top channel
From the text: Css, channel , the concentration in the channel at the steady state, was estimated using a simple Emax model Equation (2) with time (h) on the x-axis and concentration (ng/mL) on the y-axis.

[4] = 1 μM dosed, simple Emax model fit
[5] = 1 μM dosed, simple Emax model fit, sampling 1, 4, 9, 24 h
[6] = time to reach predicted 90% Css

Q: Which results are given for `Cn1c(=O)c2c(ncn2C)n(C)c1=O` [Caffeine, caffeine]?
A: Plateau reached in brain channel during the observed time [1]: reached plateau; CT50,blood (time at half steady state concentration of blood channel) ([1]; human): 2.91 h; CT50,brain (time at half steady state concentration of brain channel) ([1]; human): 2.39 h; Cplateau,brain (concentration at plateau time of brain channel) ([1]; human): 44.8098 ng/mL; Css,blood (steady state concentration of blood channel) ([1]; human): 114.47 ng/mL; Css,brain (steady state concentration of brain channel) ([1]; human): 49.79 ng/mL; tplateau,brain (plateau time for brain channel) ([1]; human): 21.52 h; Kp [2]: 0.435; Papp [2]: 30 ×10⁻⁶ cm/s

Q: Which “CT50,brain (time at half steady state concentration of brain channel)” value (“CT50,brain” below) [1, 4] does the source give for `NC(=O)N1c2ccccc2C=Cc2ccccc21` [Carbamazepine, carbamazepine] here?
A: Its value is 3.27 h.

Q: And the “CT50,blood (time at half steady state concentration of blood channel)” value (“CT50,blood” below) [1, 5]?
A: Its value is 1.98 h.

Q: And the “BBB permeability in words (apical to basolateral)” value ([1]; BBB-on-a-chip, 1 μM)?
A: Its value is “high permeabilities”.

Q: What about the “Cplateau,brain (concentration at plateau time of brain channel)” value (“Cplateau,brain” below) ([1]; human) of the same compound?
A: Its value is 28.6749 ng/mL.

Q: And the “Css,blood (steady state concentration of blood channel)” value (“Css,blood” below) ([1]; human)?
A: The value was 112.88 ng/mL.

Q: And the “Css,brain (steady state concentration of brain channel)” value (“Css,brain” below) ([1]; human)?
A: The value was 31.86 ng/mL.

Q: What about the “tplateau,brain (plateau time for brain channel)” value (shortened to “tplateau,brain”) [1, 6] of the same compound?
A: Its value is 29.41 h.

Q: What about the Kp at 1 μM [2] of the same compound?
A: Its Kp at 1 μM is 0.282.

Q: And the Papp at 24 h, 1 μM [2]?
A: Its Papp at 24 h, 1 μM is 15.8 ×10⁻⁶ cm/s.

Q: For `CNCCCN1c2ccccc2CCc2ccccc21` [Desipramine, desipramine], which “CT50,brain” value [1, 4] is on record?
A: Its value is 34.47 h.

Q: And the “Css,blood” value [1, 4]?
A: The value was 234.83 ng/mL.

Q: And the “Css,brain” value [1, 4]?
A: Its value is 73.93 ng/mL.

Q: And the “CT50,blood” value [1, 5]?
A: Its value is 57.44 h.

Q: What about the “Cplateau,brain” value ([1]; predicted 90% Css) of the same compound?
A: Its value is 66.5383 ng/mL.

Q: And the “tplateau,brain” value [1, 6]?
A: The value was 310.22 h.

Q: What about the Papp at 24 h, 1 μM [2] of the same compound?
A: The Papp at 24 h, 1 μM was 32.5 ×10⁻⁶ cm/s.

Q: Which “BBB permeability in words (apical to basolateral)” value [1] does the source give for `Nc1nc(OC(c2ccc(-c3cccc(F)c3)cc2)C(F)(F)F)cc(-c2ccc(C[C@H](N)C(=O)O)cc2)n1` (some centres unmarked) [LP533401] here?
A: The value was “low permeability”.

Q: And the “Papp (apparent permeability)” value [1]?
A: The value was 2.1693 10^−6cm/s.

Q: And the “CT50,brain” value [1, 4]?
A: The value was 0.16 h.

Q: What about the “Css,blood” value [1, 4] of the same compound?
A: Its value is 573.66 ng/mL.

Q: And the “Css,brain” value [1, 4]?
A: The value was 9.77 ng/mL.

Q: What about the “CT50,blood” value [1, 5] of the same compound?
A: Its value is 6.80 h.

Q: What about the “Kp (Brain/Blood), partition coefficient” value ([1]; human) of the same compound?
A: The value was 0.0170.

Q: And the “Plateau reached in brain channel during the observed time” value ([1]; observation up to 24 h)?
A: The value was “reached plateau”.

Q: And the “Cplateau,brain” value ([1]; predicted 90% Css)?
A: The value was 8.7886 ng/mL.

Q: What about the “tplateau,brain” value [1, 6] of the same compound?
A: Its value is 1.42 h.

Q: Which “BBB permeability in words (basolateral to apical)” value [3] does the source give for `CN(C)C(=O)C(CCN1CCC(O)(c2ccc(Cl)cc2)CC1)(c1ccccc1)c1ccccc1` [Loperamide, loperamide] here?
A: Its value is “high permeability”.

Q: And the “CT50,brain” value [1, 4]?
A: Its value is 20.04 h.

Q: And the “CT50,blood” value [1, 5]?
A: Its value is 58.46 h.

Q: And the “Cplateau,brain” value ([1]; human)?
A: The value was 33.9736 ng/mL.

Q: What about the “Css,blood” value ([1]; human) of the same compound?
A: Its value is 684.09 ng/mL.

Q: And the “Css,brain” value ([1]; human)?
A: Its value is 37.75 ng/mL.

Q: What about the “tplateau,brain” value ([1]; human) of the same compound?
A: The value was 180.32 h.

Q: What about the Kp [2] of the same compound?
A: Its Kp is 0.0552.

Q: What about the Papp [2] of the same compound?
A: Its Papp is 9.26 ×10⁻⁶ cm/s.

Q: Which “CT50,brain” value [1, 4] does the source give for `CCc1nn(CCCN2CCN(c3cccc(Cl)c3)CC2)c(=O)n1CCOc1ccccc1` [Nefazodone, nefazodone] here?
A: Its value is 37.79 h.

Q: What about the “CT50,blood” value [1, 5] of the same compound?
A: The value was 9.01 h.

Q: And the “Cplateau,brain” value ([1]; human)?
A: Its value is 13.8908 ng/mL.

Q: And the “Css,blood” value ([1]; human)?
A: The value was 161.89 ng/mL.

Q: What about the “Css,brain” value ([1]; human) of the same compound?
A: The value was 15.43 ng/mL.

Q: What about the “tplateau,brain” value [1, 6] of the same compound?
A: The value was 340.10 h.

Q: And the Kp at 1 μM [2]?
A: The Kp at 1 μM was 0.0953.

Q: What about the Papp at 24 h, 1 μM [2] of the same compound?
A: Its Papp at 24 h, 1 μM is 3.84 ×10⁻⁶ cm/s.

Q: Which “CT50,blood” value [1, 5] does the source give for `CC[C@]1(O)C[C@H]2CN(CCc3c([nH]c4ccccc34)[C@@](C(=O)OC)(c3cc4c(cc3OC)N(C=O)[C@H]3[C@@](O)(C(=O)OC)[C@H](OC(C)=O)[C@]5(CC)C=CCN6CC[C@]43[C@@H]65)C2)C1` [Vincristine, vincristine] here?
A: The value was 2.99 h.

Q: What about the “Css,blood” value ([1]; human) of the same compound?
A: The value was 626.20 ng/mL.

Q: What about the “Plateau reached in brain channel during the observed time” value ([1]; observation up to 24 h) of the same compound?
A: The value was “reached plateau”.

Q: What about the Kp [2] of the same compound?
A: Its Kp is 0.0821.

Source: article PMC11125197, “Evaluation of Drug Blood-Brain-Barrier Permeability Using a Microfluidic Chip” (Pharmaceutics, 2024)
